Patent US20190275012A9, “SUBSTITUTED THIAZOLO-PYRIDINE COMPOUNDS AS MALT1 INHIBITORS” (Lupin Limited, priority 2016, published 2019)
pIC50: −log10 of the molar value.

system: NF-kB transcriptional activity in HEK-293-NF-kB-Luc cell line overexpressing MALT1; assay: NF-kB reporter assay (luciferase, MALT1 stably overexpressed); format: cell-based; settings: Homo sapiens, 24 h, HEK-293-NF-kB-Luc cells stably overexpressing MALT1, 24 h treatment, Bright Glo luminescence; read-out: NF-kB inhibition IC50
Procedure: The NF-⇐B reporter assay was performed to screen for MALT1 inhibition mediated reduction in the NF-⇐B transcriptional activity. For this purpose, MALT1 was stably overexpressed in HEK-293—NF-⇐B-Luc cell line. Cells were seeded in poly-D-lysine coated 96-well plates in a culture medium containing the selection markers (DMEM+10% FBS+50 |g/ml Hygromycin+500 |g/ml Geniticin) and allowed to adhere overnight. On the following day, cells were treated with various concentrations of test compounds for 24 h. After 24 h of treatment with test compounds, media was removed from each well and Bright Glo™ (Promega, USA) substrate was added and incubated for further 10 min at ambient temperature. Luminescence was measured for detection of NF-⇐B reporter activity. RLUs (Relative Luminescence Units) were directly proportional to the NF-⇐B activity. % inhibition of NF-⇐B activity was calculated relative to the samples containing media with 0.1% DMSO alone as per the following formula

Question: With `COc1ncc(NC(=O)Nc2cnc3sc(C)nc3c2C2CC2)cc1C#N` [Compound 62, 1-(5-Cyano-6-methoxypyridin-3-yl)-3-(7-cyclopropyl-2-methylthiazolo[5,4-b]pyridin-6-yl)urea] as the compound, how does the pIC50 read?
Answer: 6.30 to 7.00

Question: How did the pIC50 turn out when `Cc1nc2c(C3CC3)c(NC(=O)Nc3ccc(-c4nnco4)c(Cl)c3)cnc2s1` [Compound 63, 1-(3-Chloro-4-(1,3,4-oxadiazol-2-yl)phenyl)-3-(7-cyclopropyl-2-methylthiazolo[5,4-b]pyridin-6-yl)urea] was run?
Answer: 6.30 to 7.00

Question: With `COCC1(c2c(NC(=O)Nc3ccc(-n4nccn4)c(Cl)c3)cnc3sc(C)nc23)CC1` [Compound 64, 1-(3-Chloro-4-(2H-1,2,3-triazol-2-yl)phenyl)-3-(7-(1-(methoxymethyl)cyclopropyl)-2-methylthiazolo[5,4-b]pyridin-6-yl)urea] as the compound, how does the pIC50 read?
Answer: 6.30 to 7.00

Question: How did the pIC50 turn out when `Cc1nc2c(N3CCCOCC3)c(NC(=O)Nc3cnc(-n4nccn4)c(Cl)c3)cnc2s1` [Compound 67, 1-(5-Chloro-6-(2H-1,2,3-triazol-2-yl)pyridin-3-yl)-3-(2-methyl-7-(1,4-oxazepan-4-yl)thiazolo[5,4-b]pyridin-6-yl)urea] was run?
Answer: 6.30 to 7.00

Question: How did the pIC50 turn out when `COCCN(c1c(NC(=O)Nc2ccc(-n3nccn3)c(Cl)c2)cnc2sc(C)nc12)C1CC1` [Compound 68, 1-(3-Chloro-4-(2H-1,2,3-triazol-2-yl)phenyl)-3-(7-(cyclopropyl(2-methoxyethyl)amino)-2-methylthiazolo[5,4-b]pyridin-6-yl)urea] was run?
Answer: 6.30 to 7.00

Question: `COc1nc(-n2nccn2)c(Cl)cc1NC(=O)Nc1cnc2sc(C)nc2c1C(OC)C(C)C` (stereo not drawn) [Compound 81a, 1-(5-Chloro-2-methoxy-6-(2H-1,2,3-triazol-2-yl)pyridin-3-yl)-3-(7-(1-methoxy-2-methylpropyl)-2-methylthiazolo[5,4-b]pyridin-6-yl)urea] was tested. Which pIC50 did it give?
Answer: 7.00 to 9.00

Question: How did the pIC50 turn out when `COC(c1ccccc1)c1c(NC(=O)Nc2ccc(-n3nccn3)c(Cl)c2)cnc2sc(C)nc12` (stereo not drawn) [Compound 82b, 1-(3-Chloro-4-(2H-1,2,3-triazol-2-yl)phenyl)-3-(7-(methoxy(phenyl)methyl)-2-methylthiazolo[5,4-b]pyridin-6-yl)urea] was run?
Answer: 6.30 to 7.00

Question: `COc1nc(-n2nccn2)c(C(F)(F)F)cc1NC(=O)Nc1cnc2sc(C)nc2c1C(C)OC` (stereo not drawn) [Compound 88a, 1-(2-Methoxy-6-(2H-1,2,3-triazol-2-yl)-5-(trifluoromethyl)pyridin-3-yl)-3-(7-(1-methoxyethyl)-2-methylthiazolo[5,4-b]pyridin-6-yl)urea] was tested. Which pIC50 did it give?
Answer: 7.00 to 9.00

Question: How did the pIC50 turn out when `Cc1nc2c(N(C)C3CC3)c(NC(=O)Nc3cnc(-n4nccn4)c(C(F)(F)F)c3)cnc2s1` [Compound 100, 1-(6-(2H-1,2,3-Triazol-2-yl)-5-(trifluoromethyl)pyridin-3-yl)-3-(7-(cyclopropyl(methyl)amino)-2-methylthiazolo[5,4-b]pyridin-6-yl)urea] was run?
Answer: 7.00 to 9.00

Question: With `Cc1nc2c(C3(CO)CC3)c(NC(=O)Nc3cnc(-n4nccn4)c(Cl)c3)cnc2s1` [Compound 105, 1-(5-Chloro-6-(2H-1,2,3-triazol-2-yl)pyridin-3-yl)-3-(7-(1-(hydroxymethyl)cyclopropyl)-2-methylthiazolo[5,4-b]pyridin-6-yl)urea] as the compound, how does the pIC50 read?
Answer: 7.00 to 9.00

Question: With `COc1ncc(NC(=O)Nc2cnc3sc(C)nc3c2C2(C)CC2)cc1Cl` [Compound 117, 1-(5-Chloro-6-methoxypyridin-3-yl)-3-(2-methyl-7-(1-methylcyclopropyl)thiazolo[5,4-b]pyridin-6-yl)urea] as the compound, how does the pIC50 read?
Answer: 7.00 to 9.00

Question: `Cc1ncn(-c2ccc(NC(=O)Nc3cnc4sc(C)nc4c3C3CC3)cc2Cl)n1` [Compound 173, 1-(3-Chloro-4-(3-methyl-1H-1,2,4-triazol-1-yl)phenyl)-3-(7-cyclopropyl-2-methylthiazolo[5,4-b]pyridin-6-yl)urea] was tested. Which pIC50 did it give?
Answer: 5.82 to 6.30

Question: With `Cc1nc2c(C3CC3)c(NC(=O)Nc3ccc(-n4ncnc4C)c(Cl)c3)cnc2s1` [Compound 174, 1-(3-Chloro-4-(5-methyl-1H-1,2,4-triazol-1-yl)phenyl)-3-(7-cyclopropyl-2-methylthiazolo[5,4-b]pyridin-6-yl)urea] as the compound, how does the pIC50 read?
Answer: 5.82 to 6.30

Question: `COc1ncc(NC(=O)Nc2cnc3sc(C)nc3c2C2CC2)cc1Br` [Compound 175, 1-(5-Bromo-6-methoxypyridin-3-yl)-3-(7-cyclopropyl-2-methylthiazolo[5,4-b]pyridin-6-yl)urea] was tested. Which pIC50 did it give?
Answer: 5.82 to 6.30

Question: With `Cc1nc2c(C3(C)CC3)c(NC(=O)Nc3cnc(-n4nccn4)c(C(F)(F)F)c3)cnc2s1` [Compound 177, 1-(6-(2H-1,2,3-triazol-2-yl)-5-(trifluoromethyl)pyridin-3-yl)-3-(2-methyl-7-(1-methyleyelopropyl)thiazolo[5,4-b]pyridin-6-yl)urea] as the compound, how does the pIC50 read?
Answer: 7.00 to 9.00

Question: How did the pIC50 turn out when `COc1nc(-n2nccn2)c(Cl)cc1NC(=O)Nc1cnc2sc(C)nc2c1C1(C)CC1` [Compound 178, 1-(5-Chloro-2-methoxy-6-(2H-1,2,3-triazol-2-yl)pyridin-3-yl)-3-(2-methyl-7-(1-methyleyelopropyl)thiazolo[5,4-b]pyridin-6-yl)urea] was run?
Answer: 7.00 to 9.00

Question: How did the pIC50 turn out when `COc1nc(-n2nccn2)c(Cl)cc1NC(=O)Nc1cnc2sc(C)nc2c1C(C)C` [Compound 184, 1-(5-Chloro-2-methoxy-6-(2H-1,2,3-triazol-2-yl)pyridin-3-yl)-3-(7-isopropyl-2-methylthiazolo[5,4-b]pyridin-6-yl)urea] was run?
Answer: 7.00 to 9.00

Question: With `COc1nc(OC)c(NC(=O)Nc2cnc3sc(C)nc3c2C(C)C)cc1Cl` [Compound 186, 1-(5-Chloro-2,6-dimethoxypyridin-3-yl)-3-(7-isopropyl-2-methylthiazolo[5,4-b]pyridin-6-yl)urea] as the compound, how does the pIC50 read?
Answer: 5.82 to 6.30

Question: With `Cc1nc2c(C(C)C)c(NC(=O)Nc3ccc(-n4nccn4)c(Cl)c3)cnc2s1` [Compound 188, 1-(3-Chloro-4-(2H-1,2,3-triazol-2-yl)phenyl)-3-(7-isopropyl-2-methylthiazolo[5,4-b]pyridin-6-yl)urea] as the compound, how does the pIC50 read?
Answer: 6.30 to 7.00

Question: With `Cc1nc2c(C(C3CC3)N(C)C)c(NC(=O)Nc3cnc(-n4nccn4)c(Cl)c3)cnc2s1` (stereo not drawn) [Compound 228b, 1-(5-Chloro-6-(2H-1,2,3-triazol-2-yl)pyridin-3-yl)-3-(7-(cyclopropyl(dimethylamino)methyl)-2-methylthiazolo[5,4-b]pyridin-6-yl)urea] as the compound, how does the pIC50 read?
Answer: 7.00 to 9.00

Question: With `CCC(c1c(NC(=O)Nc2cnc(-n3nccn3)c(C(F)(F)F)c2)cnc2sc(C)nc12)N1CC(F)(F)C1` (stereo not drawn) [Compound 229b, 1-(6-(2H-1,2,3-Triazol-2-yl)-5-(trifluoromethyl)pyridin-3-yl)-3-(7-(1-(3,3-difluoroazetidin-1-yl)propyl)-2-methylthiazolo[5,4-b]pyridin-6-yl)urea] as the compound, how does the pIC50 read?
Answer: 7.00 to 9.00

Question: How did the pIC50 turn out when `Cc1nc2c(C(N(C)C)C(F)(F)F)c(NC(=O)Nc3cnc(-n4nccn4)c(C(F)(F)F)c3)cnc2s1` (stereo not drawn) [Compound 230b, 1-(6-(2H-1,2,3-triazol-2-yl)-5-(trifluoromethyl)pyridin-3-yl)-3-(7-(1-(dimethylamino)-2,2,2-trifluoroethyl)-2-methylthiazolo[5,4-b]pyridin-6-yl)urea] was run?
Answer: 7.00 to 9.00

Question: How did the pIC50 turn out when `Cc1nc2c(C(N(C)C)C(F)(F)F)c(NC(=O)Nc3cnc(-n4nccn4)c(Cl)c3)cnc2s1` (stereo not drawn) [Compound 231b, 1-(5-Chloro-6-(2H-1,2,3-triazol-2-yl)pyridin-3-yl)-3-(7-(1-(dimethylamino)-2,2,2-trifluoroethyl)-2-methylthiazolo[5,4-b]pyridin-6-yl)urea] was run?
Answer: 7.00 to 9.00

Question: `CCc1nc2c(C(C)OC)c(NC(=O)Nc3cnc(-n4nccn4)c(C(F)(F)F)c3)cnc2s1` (stereo not drawn) [Compound 232b, 1-(6-(2H-1,2,3-Triazol-2-yl)-5-(trifluoromethyl)pyridin-3-yl)-3-(2-ethyl-7-(1-methoxyethyl)thiazolo[5,4-b]pyridin-6-yl)urea] was tested. Which pIC50 did it give?
Answer: 7.00 to 9.00
